Experimental data as given in patent publication US7875606B2, “Izoxazoline derivative and herbicide” (Ihara Chemical Industry Co., Ltd., priority 2001, dated 2011).

Key:
Type in all cases: in vivo
[1] = test system: Monochoria vaginalis (Murm. f.) Presl var. plantaginea (Roxb.) Solms-Laub.; experiment: Herbicidal effect by paddy field pre-emergence treatment; conditions: wettable powder, active ingredient 1000 g/ha, examined at the 21st day from the treatment
Experimental: (§1) Test For Herbicidal Effect By Paddy Field Pre-Emergence Treatment
(§2) A paddy field soil was filled in a plastic pot of 100 cm^2 and subjected to puddling. Then, seeds of Echinochloa oryzicola Vasing. and Monochoria vaginalis (Murm. f.) Presl var. plantaginea (Roxb.) Solms-Laub. were sowed and water was filled in a depth of 3 cm. Next day, wettable powders produced in accordance with the Formulation 1 were diluted with water and dropped on the water surface. The application amount of each wettable powder was 1,000 g per 1 hectare in terms of the active ingredient. Then, breeding was made in a greenhouse, and the herbicidal effect of each wettable powder was examined at the 21st day from the treatment in accordance with the standard shown in Table 61.

[2] = test system: Echinochloa oryzicola Vasing.; experiment: as above; conditions: wettable powder, active ingredient 1000 g/ha, examined at the 21st day from the treatment
Experimental: as §1, §2

[3] = test system: Setaria viridis (L.) Beauv.; experiment: Herbicidal effect by upland field pre-emergence treatment; conditions: sprayed on the soil surface, active ingredient 1000 g/ha, examined at the 21st day from the treatment
Experimental: (§3) Test For Herbicidal Effect By Upland Field Pre-Emergence Treatment An upland field soil was filled in a plastic pot of 80 cm^2. Seeds of Echinochloa crus-galli (L.) Beauv. var. crus-galli and Setaria viridis (L.) Beauv. were sowed, followed by covering with the same soil. Wettable powders produced in accordance with the Formulation 1 were diluted with water and sprayed uniformly on the soil surface using a small sprayer, in an amount of 1,000 liters per 1 hectare so that the amount of each active ingredient became 1,000 g per 1 hectare. Then, breeding was made in a greenhouse, and the herbicidal effect of each wettable powder was examined at the 21st day from the treatment in accordance with the standard shown in Table 61.

[4] = test system: Echinochloa crus-galli (L.) Beauv. var. crus-galli; experiment: as above; conditions: sprayed on the soil surface, active ingredient 1000 g/ha, examined at the 21st day from the treatment
Experimental: as §3

Cn1nc(C(F)(F)F)c(CS(=O)(=O)C2=NOC(C)(CCl)C2)c1Cl (stereo not shown) [Compound 2, 3-(5-chloro-1-methyl-3-trifluoromethyl-1H-pyrazol-4-ylmethylsulfonyl)-5-chloromethyl-5-methyl-2-isoxazoline]
5: Herbicidal effect index, Monochoria vaginalis (Burm. f) Presl Var. plantaginea (Roxb.) Solms-Laub. [1] | Herbicidal effect index, Echinochloa oryzicola Vasing [2] | Herbicidal effect index, Setaria viridis (L.) Beauv. [3] | Herbicidal effect index, Echinochloa crus-galli (L.) Beauv. Var. crus-galli [4]
